# Source: patent publication US20250270199A1, “THIAZOLE DERIVATIVES AND METHODS OF USING THE SAME” (Arkansas State University - Jonesboro, priority 2022, published 2025)
# Values joined by “and” are separate entries in the source; they are usually repeats but may differ in a detail not shown here. Equal values may be shown once.
# Tests used:
# [1] = system: B. subtilis ATCC 6633 (Bs); assay: MIC, broth microdilution, Bs; assay type: cell-based; details: Bacillus subtilis, ATCC6633; Table 1, HT series; read-out: Minimum inhibitory concentration (MIC) Bs
# Description: (§1) The broth microdilution method was utilized to determine MIC values of novel thiazole derivatives against different clinically important Gram-positive bacteria according to the guidelines outlined by the Clinical and Laboratory Standards Institute (CLSI) as reported in our recent papers.^1-5 The starting concentration of compounds for MIC determination was 64 μg/mL serially diluted down the wells and the MIC values were recorded in duplicates in three independent experiments on different days.
# [2] = system: S. aureus ATCC BAA-2312 (Sa 12); assay: MIC, broth microdilution, Sa 12; assay type: cell-based; details: Staphylococcus aureus, ATCCBAA2312; Table 1, HT series; read-out: Minimum inhibitory concentration (MIC) Sa 12
# Description: as §1
# [3] = system: E. faecalis ATCC 29212 (Efs 12); assay: MIC, broth microdilution, Efs 12; assay type: cell-based; details: replicates from different days separated by comma; for MIC: Enterococcus faecalis, ATCC29212, Table 1, HT series, read-out: Minimum inhibitory concentration (MIC) Efs 12; for Minimum inhibitory concentration (MIC) Efs 12: Table 1, HT series
# Description: as §1
# [4] = system: S. aureus subsp. aureus Rosenbach BAA-1717 (Sa USA 300); assay: MIC, broth microdilution, Sa USA 300; assay type: cell-based; details: Staphylococcus aureus; Table 1, HT series; read-out: Minimum inhibitory concentration (MIC) SA USA 300
# Description: as §1
# [5] = system: S. aureus ATCC 700699 (Sa 99); assay: MIC, broth microdilution, Sa 99; assay type: cell-based; details: replicates from different days separated by comma; for MIC: Staphylococcus aureus, ATCC700699, Table 1, HT series, read-out: Minimum inhibitory concentration (MIC) Sa 99; for Minimum inhibitory concentration (MIC) Sa 99: Table 1, HT series
# Description: as §1
# [6] = system: S. aureus subsp. aureus Rosenbach ATCC 25904 (SA Newman); assay: MIC, broth microdilution, SA Newman; assay type: cell-based; details: Staphylococcus aureus; Table 1, HT series; read-out: Minimum inhibitory concentration (MIC) Sa Newman
# Description: as §1
# [7] = system: S. aureus ATCC 25923 (Sa 23); assay: MIC, broth microdilution, Sa 23; assay type: cell-based; details: replicates from different days separated by comma; for MIC: Staphylococcus aureus, ATCC25923, Table 1, HT series, read-out: Minimum inhibitory concentration (MIC) Sa 23; for Minimum inhibitory concentration (MIC) Sa 23: Table 1, HT series
# Description: as §1
# [8] = system: E. faecium ATCC 700221 (Efm 21); assay: MIC, broth microdilution, Efm 21; assay type: cell-based; details: Enterococcus faecium, ATCC700221, Table 1, HT series; read-out: Minimum inhibitory concentration (MIC) Efm 21
# Description: as §1
# [9] = system: S. aureus ATCC 33591 (Sa 91); assay: MIC, broth microdilution, Sa 91; assay type: cell-based; details: Staphylococcus aureus, ATCC33591; Table 1, HT series; read-out: Minimum inhibitory concentration (MIC) Sa 91
# Description: as §1
# [10] = system: S. aureus ATCC 33592 (Sa 92); assay: MIC, broth microdilution, Sa 92; assay type: cell-based; details: Staphylococcus aureus, ATCC33592; Table 1, HT series; read-out: Minimum inhibitory concentration (MIC) Sa 92
# Description: as §1
# [11] = system: S. epidermidis ATCC 700296 (Se); assay: MIC, broth microdilution, Se; assay type: cell-based; details: Staphylococcus epidermidis, ATCC700296; Table 1, HT series; read-out: Minimum inhibitory concentration (MIC) Se
# Description: as §1
# [12] = system: E. faecalis ATCC 51299 (Efs 99); assay: MIC, broth microdilution, Efs 99; assay type: cell-based; details: Enterococcus faecalis, ATCC51299; Table 1, HT series; read-out: Minimum inhibitory concentration (MIC) Efs 99
# Description: as §1
# [13] = system: Sa UAMS-1 MRSA ATCC 49230 (Sa UAMS); assay: MIC, broth microdilution, Sa UAMS; assay type: cell-based, S. aureus; details: Staphylococcus aureus; Table 1, HT series; read-out: Minimum inhibitory concentration (MIC) Sa UAMS
# Description: as §1
# [14] = system: S. aureus LAC MRSA (Sa LAC); assay: MIC, broth microdilution, Sa LAC; assay type: cell-based; details: Staphylococcus aureus, Table 1, HT series, read-out: Minimum inhibitory concentration (MIC) Sa LAC
# Description: as §1
Compound,MIC [1] [µg/mL],MIC [2] [µg/mL],MIC [3] [µg/mL],MIC [4] [µg/mL],MIC [5] [µg/mL],MIC [6] [µg/mL],MIC [7] [µg/mL],MIC [8] [µg/mL],MIC [9] [µg/mL],MIC [10] [µg/mL],MIC [11] [µg/mL],MIC [12] [µg/mL],MIC [13] [µg/mL],Minimum inhibitory concentration (MIC) Efs 12 [3],Minimum inhibitory concentration (MIC) Sa 99 [5],Minimum inhibitory concentration (MIC) Sa 23 [7],MIC [14] [µg/mL]
"Oc1ccc(-c2nc(-c3ccc(Cl)cc3Cl)cs2)cc1 [Compound 34, 4-(4-(2,4-dichlorophenyl)thiazol-2-yl)phenol]",4,4,8,4,4,4,4,8,4,4,4,8,4,,,,
"Oc1ccc(-c2nc(-c3cccc(Cl)c3)cs2)cc1 [Compound 38, 4-(4-(3-chlorophenyl)thiazol-2-yl)phenol]",4,4,8,4,4,4,4,8,4,4,4,8,4,,,,
"Oc1ccc(-c2nc(-c3ccc(Cl)c(Cl)c3)cs2)cc1 [Compound 41, 4-(4-(3,4-dichlorophenyl)thiazol-2-yl)phenol]",4,1,2,1,1,2,1,2,1,1,1,2,2,,,,
"Oc1ccc(-c2nc(-c3cc(C(F)(F)F)cc(C(F)(F)F)c3)cs2)cc1 [Compound 36, 4-(4-(3,5-bis(trifluoromethyl)phenyl)thiazol-2-yl)phenol]",2,2,2,2,2,2,2,2,2,2,2,2,2,,,,
"Oc1ccc(-c2nc(-c3cc(C(F)(F)F)cc(C(F)(F)F)c3)cs2)cc1O [Compound 10, 4-(4-(3,5-bis(trifluoromethyl)phenyl)thiazol-2-yl)benzene-1,2-diol]",8,2,,4,2,2,2,8,2,2,8,8,2,16 µg/mL and 2 µg/mL and 8 µg/mL,"2, 2, 2 μg/mL",1 µg/mL and 2 µg/mL,2
"Oc1ccc(-c2nc(-c3ccc(C(F)(F)F)cc3)cs2)cc1 [Compound 39, 4-(4-(4(trifluoromethyl)phenyl)thiazol-2-yl)phenol]",4,2,> 32,4,4,4,2,32,4,4,2,> 32,4,,,,

# The remaining lines, values ahead:
MIC [1] [µg/mL],MIC [2] [µg/mL],MIC [3] [µg/mL],MIC [4] [µg/mL],MIC [5] [µg/mL],MIC [6] [µg/mL],MIC [7] [µg/mL],MIC [8] [µg/mL],MIC [9] [µg/mL],MIC [10] [µg/mL],MIC [11] [µg/mL],MIC [12] [µg/mL],MIC [13] [µg/mL],Minimum inhibitory concentration (MIC) Efs 12 [3],Minimum inhibitory concentration (MIC) Sa 99 [5],Minimum inhibitory concentration (MIC) Sa 23 [7],MIC [14] [µg/mL],Compound
16,4,16,4,4,4,4,16,4,4,4,16,4,,,,,"Oc1ccc(-c2nc(-c3ccc(Cl)c(Cl)c3)cs2)cc1O [Compound 31, 4-(4-(3,4-dichlorophenyl)thiazol-2-yl)benzene-1,2-diol]"
8,4,,4,2,4,2,16,4,8,8,16,4,16 µg/mL and 2 µg/mL and 8 µg/mL,"2, 2, 2 μg/mL","2, 2, 2 μg/mL",8,"Oc1ccc(-c2nc(-c3ccc(C(F)(F)F)cc3)cs2)cc1O [Compound 9, 4-(4-(4-(trifluoromethyl)phenyl)thiazol-2-yl)benzene-1,2-diol]"
16,8,16,4,8,4,8,16,4,8,8,16,4,,,,,"Oc1ccc(-c2nc(-c3ccc(F)c(Cl)c3)cs2)cc1O [Compound 21, 4-(4-(3-chloro-4-fluorophenyl)thiazol-2-yl)benzene-1,2-diol]"
16,8,,8,2,4,2,16,4,8,8,16,8,16 μg/mL (2×) and 2 μg/mL,"2, 2, 2 μg/mL","2, 2, 2 μg/mL",4,"Oc1ccc(-c2nc(-c3ccc(Br)cc3)cs2)cc1O [Compound 5, 4-(4-(4-bromophenyl)thiazol-2-yl)benzene-1,2-diol]"
